“And” between values parts separate entries of the source, which are not always exact repeats. Equal entries are not always repeated.
System: custom murine 40-gene Precision Profile for Rheumatoid Arthritis, whole blood
Assay: Collagen Induced Arthritis (CIA) model, whole blood gene expression by QPCR, vehicle or dexamethasone treatment
Format: in vivo, male DBA/1 mice
Details: for Normalized CT (Delta CT) IL1RAP_M / Normalized CT (Delta CT) IL1RN—M / Normalized CT (Delta CT) IL6_M / Normalized CT (Delta CT) JUN_M / Normalized CT (Delta CT) MEF2C—M / Normalized CT (Delta CT) NFKB1—M / Normalized CT (Delta CT) PADI4—M / Normalized CT (Delta CT) PLA2G7—M / Normalized CT (Delta CT) PTPRC_M / Normalized CT (Delta CT) PTX3_M / Normalized CT (Delta CT) SER-PINE1_M / Normalized CT (Delta CT) TGFB1_M / Normalized CT (Delta CT) TIMP1_M / Normalized CT (Delta CT) TLR2_M / Normalized CT (Delta CT) TLR4_M / Normalized CT (Delta CT) TNFSF5—M / Normalized CT (Delta CT) TNF_M / Normalized CT (Delta CT) VEGF_M: whole blood
Description: Whole blood gene expression changes were evaluated in vehicle control and drug-treated murine subjects across two murine models of arthritis according to the following arthritis models:
KRN Transgenic Mouse (K/B×N): K/B×N serum from transgenic mouse used to induce arthritis in female BALB/c mice (n=54). Collagen Induced Arthritis (CIA): Bovine type II collagen used to induce arthritis in male DBA/1 mice (n=54).
In addition, naïve, untreated animal groups at baseline and terminal day were included to control for potential age-related changes in gene expression over the extended study periods. Animal groups, time-points, and treatment schedules are summarized in Tables 20A and 20B, respectively.
Whole blood samples from animals were collected by retro-orbital bleed at selected time-points in accordance with the arthritis study schemas described in […], and transferred into sample collection tubes containing a 1.5× lysis solution and RPMI. Samples were processed into total RNA and cDNA. […] It was anticipated from these murine models would provide a better understanding of the relevant molecular response of arthritis induction and their potential correlation to the human disease condition.
Normal murine subject reference values (represented as normalized Ct or ΔCt values) were established for male DBA/1 mice (n=6 for the CIA study arm) and female BALB/c mice (n=6 for the KRN study arm). In both arms of the study, gene expression response of normal (naïve, non-immunized and untreated) murine subjects were evaluated in groups of 6 each at day 0 and day 60 for the CIA study arm, and at day 0 and day 21 for the KRN study arm (see Tables 20A and 20B).
Gene expression responses for this arthritis-induced murine model were evaluated for untreated mice at day 24 and vehicle-treated mice at days 33, 42, and 60 to characterize disease progression.

[1] = CIA Day 33 Treated, group Average
[2] = CIA Day 33 Treated, individual mice
[3] = CIA Day 42 Treated, group Average

SMILES: C[C@@H]1C[C@H]2[C@@H]3CCC4=CC(=O)C=C[C@]4(C)[C@@]3(F)[C@@H](O)C[C@]2(C)[C@@]1(O)C(=O)CO [Dexamethasone]
- ABCA1_M Normalized CT Value (Delta CT), Average [1]: 17.98
- APAF1_M Normalized CT Value (Delta CT), Average [1]: 19.03
- ARG2_M Normalized CT Value (Delta CT), Average [1]: 17.82
- CASP1_M Normalized CT Value (Delta CT), Average [1]: 18.22
- CASP3_M Normalized CT Value (Delta CT), Average [1]: 17.75
- CCR3_M Normalized CT Value (Delta CT), Average [1]: 19.87
- CD8A_M Normalized CT Value (Delta CT), Average [1]: 18.74
- CD14_M Normalized CT Value (Delta CT), Average [1]: 17.29
- CD32_M Normalized CT Value (Delta CT), Average [1]: 18.45
- CD86_M Normalized CT Value (Delta CT), Average [1]: 22.19
- CSPG2_M Normalized CT Value (Delta CT), Average [1]: 18.04
- F3_M Normalized CT Value (Delta CT), Average [1]: 25.08
- HMOX1—M Normalized CT Value (Delta CT), Average [1]: 17.47
- HSPA1A—M Normalized CT Value (Delta CT), Average [1]: 19.62
- ICAM1—M Normalized CT Value (Delta CT), Average [1]: 18.84
- IFI16_M Normalized CT Value (Delta CT), Average [1]: 18.42
- IL1A_M Normalized CT Value (Delta CT), Average [1]: 24.44
- IL1B_M Normalized CT Value (Delta CT), Average [1]: 14.09
- IL10_M Normalized CT Value (Delta CT), Average [1]: 25.81
- Normalized CT (Delta CT) IL1RAP_M [1]: 17.96
- Normalized CT (Delta CT) IL1RN—M [1]: 17.38
- Normalized CT (Delta CT) IL6_M [1]: 23.95
- Normalized CT (Delta CT) JUN_M [1]: 19.37
- Normalized CT (Delta CT) MEF2C—M [1]: 18.84
- Normalized CT (Delta CT) NFKB1—M [1]: 16.55
- Normalized CT (Delta CT) PADI4—M [1]: 17.87
- Normalized CT (Delta CT) PLA2G7—M [1]: 14.85
- Normalized CT (Delta CT) PTPRC_M [1]: 13.58
- Normalized CT (Delta CT) PTX3_M [1]: 25.65
- Normalized CT (Delta CT) SER-PINE1_M [1]: 20.38
- Normalized CT (Delta CT) TGFB1_M [1]: 14.82
- Normalized CT (Delta CT) TIMP1_M [1]: 25.24
- Normalized CT (Delta CT) TLR2_M [1]: 17.70
- Normalized CT (Delta CT) TLR4_M [1]: 18.20
- Normalized CT (Delta CT) TNFSF5—M [1]: 21.06
- Normalized CT (Delta CT) TNF_M [1]: 19.71
- Normalized CT (Delta CT) VEGF_M [1]: 20.19
- ABCA1_M Normalized CT Value (Delta CT) [2]: 17.26 and 18.20 and 17.50 and 17.61 and 19.02 and 18.30
- APAF1_M Normalized CT Value (Delta CT) [2]: 18.67 and 19.22 and 18.56 and 19.02 and 19.62 and 19.07
- ARG2_M Normalized CT Value (Delta CT) [2]: 17.14 and 18.42 and 17.47 and 17.92 and 17.83 and 18.15
- CASP1_M Normalized CT Value (Delta CT) [2]: 17.29 and 18.41 and 17.98 and 18.58 and 18.74 and 18.31
- CASP3_M Normalized CT Value (Delta CT) [2]: 16.82 and 17.64 and 17.74 and 18.06 and 18.00 and 18.21
- CCR3_M Normalized CT Value (Delta CT) [2]: 18.36 and 19.59 and 19.88 and 20.33 and 20.88 and 20.15
- CD8A_M Normalized CT Value (Delta CT) [2]: 17.83 and 18.69 and 18.52 and 18.83 and 19.44 and 19.14
- CD14_M Normalized CT Value (Delta CT) [2]: 17.10 and 17.77 and 16.89 and 17.05 and 17.36 and 17.54
- CD32_M Normalized CT Value (Delta CT) [2]: 17.52 and 18.69 and 18.07 and 18.17 and 19.57 and 18.71
- CD86_M Normalized CT Value (Delta CT) [2]: 21.71 and 22.43 and 21.83 and 21.99 and 22.92 and 22.26
- CSPG2_M Normalized CT Value (Delta CT) [2]: 17.33 and 18.26 and 17.36 and 18.91 and 17.94 and 18.42
- F3_M Normalized CT Value (Delta CT) [2]: 23.01 and 25.60 and 26.10 and 25.22 and 24.87 and 25.67
- HMOX1—M Normalized CT Value (Delta CT) [2]: 16.95 and 17.50 and 17.08 and 17.53 and 17.80 and 17.98
- HSPA1A—M Normalized CT Value (Delta CT) [2]: 18.80 and 20.04 and 19.25 and 20.03 and 19.32 and 20.30
- ICAM1—M Normalized CT Value (Delta CT) [2]: 18.16 and 19.11 (2×) and 18.33 and 19.33 and 19.01
- IFI16_M Normalized CT Value (Delta CT) [2]: 17.31 and 18.37 and 18.29 and 18.56 and 18.70 and 19.31
- IL1A_M Normalized CT Value (Delta CT) [2]: 24.58 and 24.31
- IL1B_M Normalized CT Value (Delta CT) [2]: 13.46 and 14.53 and 13.95 and 14.00 and 14.32 and 14.27
- IL10_M Normalized CT Value (Delta CT) [2]: 25.17 and 25.58 and 26.12 and 26.14 and 25.77 and 26.06
- Normalized CT (Delta CT) IL1RAP_M [2]: 17.64 (2×) and 18.18 and 17.83 and 18.26 and 18.20
- Normalized CT (Delta CT) IL1RN—M [2]: 16.72 and 17.84 and 17.10 and 17.67 and 17.23 and 17.73
- Normalized CT (Delta CT) IL6_M [2]: 23.19 and 24.14 and 23.12 and 24.21 and 24.22 and 24.83
- Normalized CT (Delta CT) JUN_M [2]: 18.61 and 19.69 and 19.28 and 19.18 and 19.87 and 19.60
- Normalized CT (Delta CT) MEF2C—M [2]: 18.46 and 19.03 and 18.51 and 18.82 and 19.65 and 18.56
- Normalized CT (Delta CT) NFKB1—M [2]: 15.81 and 16.66 and 16.35 and 16.51 and 17.38 and 16.63
- Normalized CT (Delta CT) PADI4—M [2]: 17.79 and 18.22 and 17.82 and 17.94 and 17.90 and 17.58
- Normalized CT (Delta CT) PLA2G7—M [2]: 14.49 and 15.12 and 14.67 and 15.01 and 15.09 and 14.74
- Normalized CT (Delta CT) PTPRC_M [2]: 13.01 and 13.82 and 13.27 and 13.81 and 14.11 and 13.46
- Normalized CT (Delta CT) PTX3_M [2]: 25.66 and 25.46 and 25.62 and 25.86 and 26.01 and 25.32
- Normalized CT (Delta CT) SER-PINE1_M [2]: 20.09 and 20.42 and 20.70 and 20.01 and 20.26 and 20.78
- Normalized CT (Delta CT) TGFB1_M [2]: 14.47 and 14.92 and 14.68 and 14.99 and 14.96 and 14.87
- Normalized CT (Delta CT) TIMP1_M [2]: 25.48 and 25.27 and 25.34 and 25.05 and 25.73 and 24.56
- Normalized CT (Delta CT) TLR2_M [2]: 17.23 and 17.92 and 17.46 and 17.97 and 17.84 and 17.81
- Normalized CT (Delta CT) TLR4_M [2]: 17.72 and 18.52 and 18.24 and 18.23 and 18.30 and 18.16
- Normalized CT (Delta CT) TNFSF5—M [2]: 20.24 and 21.35 and 20.73 and 21.36 and 21.76 and 20.95
- Normalized CT (Delta CT) TNF_M [2]: 18.97 and 20.16 and 19.24 and 19.56 and 20.34 and 20.01
- Normalized CT (Delta CT) VEGF_M [2]: 19.55 and 20.59 and 19.74 and 20.04 and 21.29 and 19.96
- ABCA1_M Normalized CT Value (Delta CT), Average [3]: 19.35
- APAF1_M Normalized CT Value (Delta CT), Average [3]: 19.60
- ARG2_M Normalized CT Value (Delta CT), Average [3]: 17.90
- CASP1_M Normalized CT Value (Delta CT), Average [3]: 18.55
- CASP3_M Normalized CT Value (Delta CT), Average [3]: 18.07
- CCR3_M Normalized CT Value (Delta CT), Average [3]: 19.53
- CD8A_M Normalized CT Value (Delta CT), Average [3]: 19.66
- CD14_M Normalized CT Value (Delta CT), Average [3]: 17.57

Source: patent US20080227655A1, “Assessment of effect of an agent on a human biological condition using rodent gene expression panels” (priority 2006, published 2008)
